pIC50: −log10 of the molar value. In brackets after ≈: the same amount, converted by molar mass. Like-named read-outs stand apart in the source and are kept apart here.
Experiments:
Thermodynamic solubility = format: physicochemical
Rat PK (iv and po) = format: in vivo; details: for frac. abs.: estimated from %F, Cl and Qh = 70 mL min^–1 kg^–1; for bioavailability: in vivo, 4 mg/kg; for bioavailability / Cl / Vd: iv 1 mpk; for bioavailability / Cmax: po 4 mpk in 0.5% methylcellulose
Text: This was an early indication that the strategy of increasing potency while lowering lipophilicity would allow us to meet our goal of improving prospects for favorable PK and dose.

CYP2C8 = target: T1, CYP2C8 (Homo sapiens, UniProt P10632); test: CYP inhibition, 2C8; format: in vitro ADME; details: most potently inhibited CYP isoform
T1 sequence (P10632 1-490): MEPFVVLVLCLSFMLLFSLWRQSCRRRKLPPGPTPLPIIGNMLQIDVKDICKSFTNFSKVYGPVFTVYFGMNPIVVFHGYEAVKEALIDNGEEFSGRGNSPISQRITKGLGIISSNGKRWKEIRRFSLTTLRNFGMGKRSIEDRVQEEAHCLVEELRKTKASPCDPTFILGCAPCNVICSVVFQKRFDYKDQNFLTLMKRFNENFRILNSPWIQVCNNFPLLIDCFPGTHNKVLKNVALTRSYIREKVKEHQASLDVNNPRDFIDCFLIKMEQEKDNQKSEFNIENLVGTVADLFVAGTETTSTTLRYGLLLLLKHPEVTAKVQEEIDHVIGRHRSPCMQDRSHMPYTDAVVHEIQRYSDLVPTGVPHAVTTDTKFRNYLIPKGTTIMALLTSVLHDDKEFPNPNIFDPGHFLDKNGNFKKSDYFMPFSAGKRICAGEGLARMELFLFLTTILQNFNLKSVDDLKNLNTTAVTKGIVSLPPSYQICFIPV

PI3Kα = PI3Kα enzyme selectivity (PI3Kα IC50 over mTOR IC50); format: biochemical; details: ratio of PI3Kα enzyme IC50 over mTOR enzyme IC50
[1] = Human liver microsome intrinsic clearance; format: in vitro ADME
[2] = tested on: pS6K-T389 in PC-3 cells (TORC1); test: Cellular pS6K-T389 assay in PC-3 cells (TORC1 activity); format: cell-based; details: Homo sapiens, read-out: pS6K-T389 cell IC50
Text: Our previously reported inhibitor 1 (Figure 1) was potent against mTOR and selective against the off-target PI3Kα.[10]−[12] The target product profile for 1 and the next-generation analogs described here was for a dual inhibitor against both TORC1 and TORC2. […] We undertook a campaign to identify analogs that had improved prospects for a lower efficacious dose while retaining the favorable selectivity and safety profile of compound 1.

[3] = tested on: A549 lung carcinoma cell line xenograft; test: Mouse xenograft model with A549 lung carcinoma cell line; format: in vivo
Procedure: Based on the improved rat PK for 14c, it was dosed at 2 and 6 mpk along with lead 1 at 30 mpk—in an effort to achieve similar in vivo exposure profiles—in a mouse xenograft model with the lung carcinoma cell line A549 (Figure 4). […] The 6 mpk dose of 14c reduced the tumor volume by more than 50%. Regrowth was included to assess a possible growth lag period, but as expected, tumor regrowth resumed following mTOR inhibitor withdrawal.[22]
All animal studies were conducted in accordance with Takeda California Institutional Animal Care and Use Committee guidelines in a facility accredited by the American Association for Accreditation of Laboratory Animal Care. Female Nu/Nu mice (Balb/c), approximately 28 days of age and weighing 20 to 23 grams were obtained from Harlan Laboratories. Immuno-compromised and/or inbred mice are used extensively for in vivo cancer research for detecting pharmacological capabilities induced by anti-cancer agents and therefore were chosen as the most appropriate animal model for this study. Five million A549 cells/animal (0.2 mL) w/ Matrigel were implanted S.C. into the right flank of Balb/c Nu/Nu mice.
Low passage A549 cells were grown in F12 media and supplied at a concentration of 50 million cells/mL in DPBS. Treatment was initiated when all study animals had small tumors averaging approximately 150-180 mg. Dosing solutions/suspensions were prepared every 5 days. Compound 1 was suspended in 30% Captisol in 0.05 M MSA pH ~1.5. Compound 14c was suspended in 0.5% MC. Dose solutions/suspensions were given orally at a dose volume of 5 mL/kg. […] The general health of the mice was monitored, and mortality was assessed daily. Tumor dimensions were recorded 2 times per week starting one day before the first day of treatment. Toxicity was assessed as net body weight loss and lethality. Tumor weights are calculated using the equation (a x b2)/2, where a and b refer to the larger and smaller dimensions collected at each measurement. Error bars in each plot of % tumor volume change vs. days of treatment were calculated as the standard error of the means. […]

[4] = pH 1.2, read-out: Thermodynamic solubility at pH 1.2
[5] = pH 6.8, read-out: Thermodynamic solubility at pH 6.8

Structure (SMILES) | solubility thermodynamic (Thermodynamic solubility; [4]) | solubility thermodynamic (Thermodynamic solubility; [5]) | frac. abs. (Rat PK (iv and po)) | bioavailability (Rat PK (iv and po)) | Cl (Rat PK (iv and po)) | Vd (Rat PK (iv and po)) | Cmax (Rat PK (iv and po)) | pIC50 (CYP2C8) | PI3Ka sel. (PI3Kα) | PI3Kα Sel (PI3Kα; Table 2, unit not given) | HLM Clint ([1]; apparent intrinsic clearance, scaled) | pIC50 [2] | Tumor growth ([3]; 2 mpk po QD 14 days) | Tumor volume reduction ([3]; 6 mpk po QD 14 days) | PI3Kα Sel (PI3Kα) | CLint scaled ([1]; human, liver microsomes, Figure 1 profile, read-out: HLM Clint) | Tumor growth ([3]; 30 mpk po QD 14 days)
C[C@@]12COCCN1c1nc(-c3cccc4[nH]ccc34)ncc1N([C@H]1CC[C@H](O)CC1)C2=O [14c] | 3960 µM (≈ 1720 µg/mL) | 6 µM (≈ 2.6 µg/mL) | 100% | 94% | 7.0 mL min^–1 kg^–1 | 1.3 L/kg | 1600 nM | 4.68 | 240 × | 240 | 6 mL min^–1 kg^–1 | 8.22 | fully inhibited tumor growth | more than 50% |  |  | 
CC(F)(F)CN1C(=O)[C@]2(C)COCCN2c2nc(-c3ccc(NC(=O)NC4CC4)cc3)ncc21 [compound 1] | 340 µM (≈ 161 µg/mL) | 0.6 µM (≈ 0.283 µg/mL) | 22% | 20% | 6.9 mL min^–1 kg^–1 | 0.95 L/kg | 320 nM | 5.15 |  |  |  | 7.31 |  |  | 54 x | 10 mL/min/kg | fully inhibited tumor growth
